Laboratory results as given in patent US5902810A, “Pteridine derivatives as no synthase inhibitors” (Hoechst Aktiengesellschaft, priority 1994, dated 1999).

Biological target: T1, purified NO synthase from pig cerebellum (Sus scrofa, UniProt F1RKF2)
T1 construct: purified NO synthase from pig cerebellum; from tissue; host or cells: pig cerebellum
Experiment: Inhibition of the activity of purified nitric oxide synthase (NOS), 3H-L-citrulline formation, enzyme from pig cerebellum
Assay type: biochemical
Conditions: 0.25 h, substance 100 μM, antagonistic test in the presence of 2 μM tetrahydrobiopterin, 37° C., 15 minutes, read-out: Citrulline formation (% of the control)
Protocol: In this assay for purified NO synthase (NOS) the coproduct L-citrulline obtained during NO formation is determined quantitatively. This is carried out by the use of ^3 H-radiolabeled L-arginine as a substrate of the enzyme reaction, which is reacted to give ^3 H-L-citrulline and NO. After the enzyme incubation is complete, resulting L-citrulline is removed from unused L-arginine by means of ion-exchange chromatography of the reaction mixture; the ^3 H-activity determined by liquid scintillation measurement then corresponds to the amount of L-citrulline.
The coproduct L-citrulline obtained during the formation of NO by purified NOS is determined quantitatively in this activity assay. The substrate of the enzyme reaction employed is ^3 H-radiolabeled L-arginine, which is reacted to give ^3 H-L-citrulline and NO. After the enzyme incubation is complete, resulting L-citrulline is removed from unused L-arginine by means of ion-exchange chromatography of the reaction mixture; the ^3 H activity measured by liquid scintillation then corresponds to the amount of L-citrulline, which is a direct measure of the activity of NOS.
The base medium for carrying out the enzyme reaction is TE buffer (triethanolamine, EDTA, pH 7.0). The final volume of each incubation is 100 μl. The reaction mixture is obtained by mixing the following 6 components on ice:
"REA mix" (pH 7.0), which contains triethanolamine, calcium chloride, magnesium chloride, EDTA, L-arginine, calmodulin and flavine adenine dinucleotide (FAD);
2. freshly prepared stock solution of β-nicotinamide adenine dinucleotide phosphate, reduced form (NADPH); […]
Triethanolamine 50 mM, EDTA 0.5 mM, CaCl2 226 μM, MgCl2 477 μM, L-arginine 50 μM, calmodulin 0.5 μM, FAD 5 μM, NADPH 1 mM, BH4 (if added) 2 μM, substance to be tested 100 μM. […] 9 ml of scintillator solution are added to the 3 ml aqueous measuring solution and the homogeneous mixture is measured for 1 minute per sample in a Tricarb 2500 TR (Packard) liquid scintillation counter. […]
`CC(NC(=O)OCc1ccccc1)C(=O)OCc1cnc2nc(N)[nH]c(=O)c2n1` (stereo not shown) [Example 21] showed a remaining activity at 100 µM of 60.8%.
Compound `Nc1nc2ncc(COC(=O)C(Cc3ccccc3)NC(=O)OCc3ccccc3)nc2c(=O)[nH]1` (stereo not shown) [Example 23] has a remaining activity at 100 µM of 2.5%.
`CSCc1cnc2nc(N)[nH]c(=O)c2n1` [Example 37] gave a remaining activity at 100 µM of 22.9%.

System: purified NO synthase from pig liver
Experiment: Inhibition of the activity of purified nitric oxide synthase (NOS), 3H-L-citrulline formation, enzyme from pig liver
Assay type: biochemical
Conditions: substance 100 μM, antagonistic test in the presence of 2 μM tetrahydrobiopterin, 37° C., 15 minutes
Text: The inhibition of NO release by the compounds of the formula I can be determined by an activity assay based on the studies of Bredt and Snyder and also Schmidt et al. (see D. S. Bredt and S. S. Snyder, Isolation of nitric oxide synthase, a calmodulin-requiring enzyme, Proc. Natl. Acad. Sci. USA 87 (1990), 682; H. H. H. W. Schmidt et al., Purification of a soluble isoform of guanylyl cyclase-activating factor synthase, Proc. Natl. Acad. Sci. USA 88 (1991), 365). In this assay for purified NO synthase (NOS) the coproduct L-citrulline obtained during NO formation is determined quantitatively. […] After the enzyme incubation is complete, resulting L-citrulline is removed from unused L-arginine by means of ion-exchange chromatography of the reaction mixture; the ^3 H-activity determined by liquid scintillation measurement then corresponds to the amount of L-citrulline. […]
The coproduct L-citrulline obtained during the formation of NO by purified NOS is determined quantitatively in this activity assay. […] After the enzyme incubation is complete, resulting L-citrulline is removed from unused L-arginine by means of ion-exchange chromatography of the reaction mixture; the ^3 H activity measured by liquid scintillation then corresponds to the amount of L-citrulline, which is a direct measure of the activity of NOS. […]
In the case of `N=c1[nH]c(N)nc2ncc(CN)nc12` [Example 76], the “Citrulline formation (% of the control)” value is reported as 22.4 % of the control.

System: NO synthase
Experiment: not given
Conditions: literature reports (Kwon et al.; Giovanelli et al.; Hevel and Marletta); cited from earlier work
For `CC1CNc2nc(N)[nH]c(=O)c2N1` (stereo not shown) [6-methyl-5,6,7,8-tetrahydropterin], the “Effect on NO production / NO synthase activity” value is given as “increase in NO synthase activity”.
In the case of `C[C@H](O)[C@H](O)C1=Nc2c(nc(N)[nH]c2=O)NC1` [7,8-dihydrobiopterin], the “Effect on NO production / NO synthase activity” value is given as “Stimulation of NO production”.
In the case of `C[C@H](O)[C@H](O)c1cnc2nc(N)[nH]c(=O)c2n1` [biopterin], the “Effect on NO production / NO synthase activity” value is given as “no significant effects”.
For `Nc1nc2ncc(CNc3ccc(C(=O)N[C@@H](CCC(=O)O)C(=O)O)cc3)nc2c(=O)[nH]1` [folic acid], the “Effect on NO production / NO synthase activity” value is given as “no significant effects”.
In the case of `Nc1nc2nccnc2c(=O)[nH]1` [pterin], the “Effect on NO production / NO synthase activity” value is given as “no significant effects”.
In the case of `C[C@H](O)[C@H](O)[C@H]1CNc2nc(N)[nH]c(=O)c2N1` [tetrahydrobiopterin], the “Effect on NO production / NO synthase activity” value is given as “stimulates NO production”.
